Experimental data as given in US9018173B2, “Materials and methods for suppressing inflammatory and neuropathic pain” (Indiana University Research and Technology Corp., priority 2010, dated 2015).
Read-outs that look alike come from different tables or passages of the source. Residues, ends and D or L forms follow the SMILES beside them.

Legend:
spatial memory = assay: Morris water maze test of spatial/reference memory; type: in vivo, mice; details: 10 mg/kg i.p., 1 h-7 d after administration
Description: The rotarod test for motor coordination was performed as described with slight modifications. Following i.p. injection of vehicle or peptides, mice were tested with three trials each of fast and slow acceleration. The Morris water maze test was used to test reference/spatial memory. Mice were trained prior to the i.p. injection of TAT-Scramble or TAT-CBD3 peptides for 4 consecutive days (4 trials/day). Performance was evaluated 3 days following injection. Morris water maze test of spatial/reference memory. The Morris water maze test was used to test spatial memory. The maze consisted of a plastic pool (100 cm in diameter and 60 cm in depth) filled with water to a depth of 26.5 cm, with a clear Plexiglas stand (10 cm in diameter and 26 cm in height [i.e., 0.5 cm below the water's surface]) used as the hidden goal platform. The mice were trained prior to the injection for 4 consecutive days (4 trials/day). For each daily block of four trials, the mice were placed in the pool facing the wall. Trials were initiated from each of the four possible start locations (north, east, south, west) in a randomized manner. A maximum of 60 sec was allowed for each mouse to find the hidden platform. […] Mice were excluded from the study if their average latency to locate the platform on day 4 of the trials was greater than 50 sec. […]

[1] = test system: dorsal root ganglion neurons; details: 10 μM, 12 h
[2] = test system: depression/despair-associated behavior; assay: Tail suspension test (TST); type: in vivo, C57BL6 mice; details: for Tail Suspension Test: Active: C57BL6 mice, 1 h after injection, 5 min test
Description: The light-dark box test and the elevated plus maze were used as measures of anxiety-associated behaviors. The tail suspension test was performed to evaluate despair- and depression-associated behavior.
Depression/Despair-behavior testing. Since rodents such as mice and rats display immobile postures when placed in inescapable stressful situations, immobility behavior in the tail suspension test (TST) or forced swim test (FST) is used as a measure of “depression” or “despair”-associated behavior. Furthermore, administering antidepressant treatments prior to testing reduces immobility behavior. Therefore TST and FST are often used to screen novel drugs for depressant or anti-depressant properties.
Tail suspension test as a measure of depression-associated behavior. Immediately following the EPM test, the TST was conducted according to standard procedure between 8:00 AM and 2:00 PM. Cryan, J. F., Mombereau, C., & Vassout, A. The tail suspension test as a model for assessing antidepressant activity: review of pharmacological and genetic studies in mice. Neurosci. Biobehay. Rev. 29, 571-625 (2005). Briefly, each mouse was suspended by the tail at a height of 40 cm by taping the rail to a horizontal bar so that the tail is vertical to the bar. Behavior was video recorded for 5 min and later analyzed by an experimenter, whom was blind to the treatments. […] If a mouse climbed its tail the mouse was gently pulled back down and the trial continued. Mice that climbed their tails for more than 20% of the trial (i.e. >60 seconds) were eliminated from the final analysis. Duration and frequency of immobility was the main parameters measured. Mice injected with the scrambled control peptide were immobile approximately 26% of the TST duration which is equivalent to baseline immobility durations (approximately 27%) observed in C57B16 mice in another recent study.

[3] = target: T1, interaction between tubulin and CRMP-2 (Rattus norvegicus, UniProt P47942); assay: Immunoprecipitation of CRMP-2/tubulin in the presence of peptides; type: binding; details: spinal cord lysates
T1 construct: from tissue; host or cells: rat brain / spinal cord lysates (tubulin)

[4] = target: CaV2.2 current density in hippocampal neurons (Rattus norvegicus, UniProt Q02294); assay: Whole-cell patch-clamp Ca2+ currents in hippocampal neurons; type: cell-based; details: co-expression with CRMP-2 in hippocampal neurons; +10 mV
CaV2.2 current density in hippocampal neurons, sequence (Q02294 whole entry): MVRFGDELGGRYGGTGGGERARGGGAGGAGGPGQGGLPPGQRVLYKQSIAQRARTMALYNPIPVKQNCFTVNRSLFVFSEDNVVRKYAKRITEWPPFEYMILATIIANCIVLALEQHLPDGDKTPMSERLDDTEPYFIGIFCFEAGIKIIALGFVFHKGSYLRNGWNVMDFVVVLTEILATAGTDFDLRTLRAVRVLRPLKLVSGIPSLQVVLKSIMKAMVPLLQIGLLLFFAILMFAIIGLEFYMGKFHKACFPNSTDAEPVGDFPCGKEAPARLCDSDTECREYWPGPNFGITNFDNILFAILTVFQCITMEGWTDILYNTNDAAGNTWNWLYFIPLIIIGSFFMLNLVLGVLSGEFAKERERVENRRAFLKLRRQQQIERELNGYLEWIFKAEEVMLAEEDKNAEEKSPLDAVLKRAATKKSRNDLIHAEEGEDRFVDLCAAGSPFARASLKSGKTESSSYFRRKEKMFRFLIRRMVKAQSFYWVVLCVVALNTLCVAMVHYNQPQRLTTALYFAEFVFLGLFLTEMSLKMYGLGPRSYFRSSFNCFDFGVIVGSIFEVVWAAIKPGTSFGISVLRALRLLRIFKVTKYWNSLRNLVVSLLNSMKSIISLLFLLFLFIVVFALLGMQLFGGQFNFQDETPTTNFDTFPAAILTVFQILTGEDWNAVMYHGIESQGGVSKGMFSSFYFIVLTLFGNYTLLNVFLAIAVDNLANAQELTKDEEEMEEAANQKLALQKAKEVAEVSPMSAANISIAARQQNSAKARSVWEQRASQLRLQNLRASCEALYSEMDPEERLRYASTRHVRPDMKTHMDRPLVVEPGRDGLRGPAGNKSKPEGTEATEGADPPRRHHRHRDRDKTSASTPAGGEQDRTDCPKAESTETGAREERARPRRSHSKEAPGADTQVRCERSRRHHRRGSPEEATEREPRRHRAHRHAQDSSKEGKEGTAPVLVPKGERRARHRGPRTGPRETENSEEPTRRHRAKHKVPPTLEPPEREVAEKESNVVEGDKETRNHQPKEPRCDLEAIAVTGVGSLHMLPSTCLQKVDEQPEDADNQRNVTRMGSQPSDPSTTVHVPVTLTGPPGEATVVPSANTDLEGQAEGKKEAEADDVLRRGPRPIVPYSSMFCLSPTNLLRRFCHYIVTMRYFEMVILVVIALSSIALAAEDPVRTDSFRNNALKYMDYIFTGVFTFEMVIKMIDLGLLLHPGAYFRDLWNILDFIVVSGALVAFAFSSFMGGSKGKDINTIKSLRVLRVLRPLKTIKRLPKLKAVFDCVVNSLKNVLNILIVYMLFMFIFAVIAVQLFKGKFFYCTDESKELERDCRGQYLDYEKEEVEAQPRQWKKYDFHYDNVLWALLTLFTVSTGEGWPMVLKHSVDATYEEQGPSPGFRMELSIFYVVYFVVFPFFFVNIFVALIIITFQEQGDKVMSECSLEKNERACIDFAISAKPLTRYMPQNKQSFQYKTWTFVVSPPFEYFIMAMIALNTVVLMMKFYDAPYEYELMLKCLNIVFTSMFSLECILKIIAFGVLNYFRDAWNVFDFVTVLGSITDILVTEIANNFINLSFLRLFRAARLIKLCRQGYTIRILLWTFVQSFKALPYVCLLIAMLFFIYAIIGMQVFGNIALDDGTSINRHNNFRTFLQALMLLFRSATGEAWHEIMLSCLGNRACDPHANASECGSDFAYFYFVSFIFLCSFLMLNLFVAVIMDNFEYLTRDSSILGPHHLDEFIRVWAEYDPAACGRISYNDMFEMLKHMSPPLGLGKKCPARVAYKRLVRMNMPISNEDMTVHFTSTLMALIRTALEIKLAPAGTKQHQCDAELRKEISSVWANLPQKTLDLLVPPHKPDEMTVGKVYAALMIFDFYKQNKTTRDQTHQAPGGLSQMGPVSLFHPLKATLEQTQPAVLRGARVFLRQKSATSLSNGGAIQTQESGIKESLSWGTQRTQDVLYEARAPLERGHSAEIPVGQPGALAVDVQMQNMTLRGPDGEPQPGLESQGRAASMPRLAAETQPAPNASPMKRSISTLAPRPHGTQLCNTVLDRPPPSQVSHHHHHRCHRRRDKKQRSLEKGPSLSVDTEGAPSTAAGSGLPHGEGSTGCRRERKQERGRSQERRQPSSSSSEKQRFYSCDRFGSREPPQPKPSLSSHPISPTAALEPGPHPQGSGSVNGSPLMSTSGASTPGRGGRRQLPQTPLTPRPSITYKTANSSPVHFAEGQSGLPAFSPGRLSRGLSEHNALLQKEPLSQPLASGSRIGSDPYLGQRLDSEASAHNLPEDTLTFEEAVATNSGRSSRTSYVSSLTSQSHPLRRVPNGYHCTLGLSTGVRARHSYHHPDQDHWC
CaV2.2 current density in hippocampal neurons, sequence (P54287 whole entry partner): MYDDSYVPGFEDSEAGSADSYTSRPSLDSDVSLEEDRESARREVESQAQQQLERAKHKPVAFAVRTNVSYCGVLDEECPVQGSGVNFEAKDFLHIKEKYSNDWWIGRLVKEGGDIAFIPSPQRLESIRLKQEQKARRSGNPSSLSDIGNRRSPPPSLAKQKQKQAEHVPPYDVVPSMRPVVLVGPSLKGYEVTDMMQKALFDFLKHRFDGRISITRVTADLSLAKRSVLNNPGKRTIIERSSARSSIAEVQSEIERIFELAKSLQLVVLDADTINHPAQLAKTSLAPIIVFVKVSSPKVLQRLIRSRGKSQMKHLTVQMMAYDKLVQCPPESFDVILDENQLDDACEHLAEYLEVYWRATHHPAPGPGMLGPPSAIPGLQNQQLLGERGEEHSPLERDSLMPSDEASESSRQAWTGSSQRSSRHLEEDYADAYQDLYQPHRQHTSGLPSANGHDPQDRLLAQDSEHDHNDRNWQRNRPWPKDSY
CaV2.2 current density in hippocampal neurons, sequence (P54290 25-944 partner limits assumed): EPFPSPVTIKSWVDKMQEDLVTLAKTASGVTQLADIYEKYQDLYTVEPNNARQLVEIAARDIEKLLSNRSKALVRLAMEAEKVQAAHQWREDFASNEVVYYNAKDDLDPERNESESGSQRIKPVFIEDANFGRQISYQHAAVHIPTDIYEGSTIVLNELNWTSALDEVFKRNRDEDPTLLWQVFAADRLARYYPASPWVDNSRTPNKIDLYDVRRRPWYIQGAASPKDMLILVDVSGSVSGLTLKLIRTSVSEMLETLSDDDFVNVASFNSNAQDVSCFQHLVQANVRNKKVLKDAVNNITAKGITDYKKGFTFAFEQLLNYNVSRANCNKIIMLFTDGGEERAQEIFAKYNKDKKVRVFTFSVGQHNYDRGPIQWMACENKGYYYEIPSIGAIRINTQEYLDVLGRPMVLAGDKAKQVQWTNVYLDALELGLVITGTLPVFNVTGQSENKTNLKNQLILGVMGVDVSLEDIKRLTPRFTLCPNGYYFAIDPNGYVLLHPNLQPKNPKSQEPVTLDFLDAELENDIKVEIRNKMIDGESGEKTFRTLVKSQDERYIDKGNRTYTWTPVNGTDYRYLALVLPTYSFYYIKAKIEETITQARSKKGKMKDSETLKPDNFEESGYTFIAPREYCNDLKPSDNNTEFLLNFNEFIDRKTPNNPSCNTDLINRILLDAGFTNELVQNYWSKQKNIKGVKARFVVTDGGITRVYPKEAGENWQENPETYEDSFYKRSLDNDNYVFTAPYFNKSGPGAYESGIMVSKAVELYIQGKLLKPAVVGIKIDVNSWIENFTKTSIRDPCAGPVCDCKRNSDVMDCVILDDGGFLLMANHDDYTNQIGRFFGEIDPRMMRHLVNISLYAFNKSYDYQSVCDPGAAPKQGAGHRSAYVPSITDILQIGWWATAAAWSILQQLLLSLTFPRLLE
CaV2.2 current density in hippocampal neurons, sequence (P54290 945-1091 partner limits assumed): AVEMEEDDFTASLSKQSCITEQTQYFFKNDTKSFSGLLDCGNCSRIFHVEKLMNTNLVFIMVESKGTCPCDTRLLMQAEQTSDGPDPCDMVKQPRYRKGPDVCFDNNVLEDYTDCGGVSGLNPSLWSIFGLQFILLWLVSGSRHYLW

CC(C)C[C@H](NC(=O)CNC(=O)[C@H](CCCNC(=N)N)NC(=O)[C@@H]1CCCN1C(=O)[C@@H](NC(=O)CNC(=O)[C@H](CCCNC(=N)N)NC(=O)[C@H](CC(C)C)NC(=O)[C@H](CCC(=O)O)NC(=O)[C@H](C)NC(=O)[C@H](CC(C)C)NC(=O)[C@H](CCCNC(=N)N)NC(=O)[C@H](CO)NC(=O)[C@H](CCCNC(=N)N)NC(=O)[C@H](C)NC(=O)[C@H](CCCNC(=N)N)NC(=O)[C@H](CCCNC(=N)N)NC(=O)[C@H](CCCNC(=N)N)NC(=O)[C@H](CCC(N)=O)NC(=O)[C@H](CCCNC(=N)N)NC(=O)[C@H](CCCNC(=N)N)NC(=O)[C@H](CCCCN)NC(=O)[C@H](CCCCN)NC(=O)[C@H](CCCNC(=N)N)NC(=O)CNC(=O)[C@@H](N)Cc1ccc(O)cc1)C(C)C)C(=O)O [TAT-CBD3] (H-YGRKKRRQRRRARSRLAELRGVPRGL-OH; N-terminus and C-terminus assumed)
coordination or spatial memory (Morris water maze) (spatial memory): did not affect coordination or spatial memory
cell viability (MTT, absorbance at 490 nm) [1]: without affecting cell viability
cell viability (MTT, absorbance at 490 nm) ([1]; listed as TAT CBD3): does not affect cell viability
Tail Suspension Test: Active ([2]; 0.1 mg/kg i.p.): 238.1 ± 13.6 s
Tail Suspension Test: Active ([2]; 1 mg/kg i.p.): 235.2 ± 13.0 s
Tail Suspension Test: Active ([2]; 10 mg/kg i.p.): 239.7 ± 10.9 s
TST time spent immobile and frequency of immobile episodes ([2]; any dose, compared to TAT-Scramble): neither time spent immobile, nor frequencies of immobile episodes were altered

ARSRLAELRGVPRGL (CBD3)
interaction between tubulin and CRMP-2 (immunoprecipitation) [3]: did not affect
CRMP-2-mediated increase in CaV2.2 current density [4]: eliminated
